Measurements from US20070244097A1 (priority 2003, published 2007).

Biological target: α7 nAChR subtype (Rattus norvegicus, UniProt Q05941)
Type: binding
Conditions: read-out: KD (saturation curve, one site model)

α7 nAChR subtype, sequence (Q05941 23-502 limits assumed): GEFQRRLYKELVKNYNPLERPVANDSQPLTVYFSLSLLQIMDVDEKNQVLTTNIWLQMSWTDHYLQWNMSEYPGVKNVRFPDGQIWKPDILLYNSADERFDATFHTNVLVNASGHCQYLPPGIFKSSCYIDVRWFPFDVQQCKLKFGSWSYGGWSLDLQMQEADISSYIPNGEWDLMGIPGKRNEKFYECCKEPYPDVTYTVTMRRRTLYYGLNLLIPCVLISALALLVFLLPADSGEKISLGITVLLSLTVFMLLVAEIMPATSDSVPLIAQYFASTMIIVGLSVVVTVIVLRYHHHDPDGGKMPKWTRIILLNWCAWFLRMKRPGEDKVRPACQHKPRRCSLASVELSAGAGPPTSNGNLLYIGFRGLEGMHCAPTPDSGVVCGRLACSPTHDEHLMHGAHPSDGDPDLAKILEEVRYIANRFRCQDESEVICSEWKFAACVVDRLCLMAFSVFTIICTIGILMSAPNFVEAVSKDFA

^125I-α-Bungarotoxin [^125I-α-BTX]
Kd: 1.67 nM
